Test results: patent US7410975B2, “Small molecule toll-like receptor (TLR) antagonists” (Coley Pharmaceutical Group, Inc., priority 2003, dated 2008)
Structures can show the parent of a compound that is named as a salt.

Target: T1, human TLR7 (hTLR7) (Homo sapiens, UniProt Q9NYK1)
T1 construct: expressed in transfected cells
T1 sequence (Q9NYK1 27-1049): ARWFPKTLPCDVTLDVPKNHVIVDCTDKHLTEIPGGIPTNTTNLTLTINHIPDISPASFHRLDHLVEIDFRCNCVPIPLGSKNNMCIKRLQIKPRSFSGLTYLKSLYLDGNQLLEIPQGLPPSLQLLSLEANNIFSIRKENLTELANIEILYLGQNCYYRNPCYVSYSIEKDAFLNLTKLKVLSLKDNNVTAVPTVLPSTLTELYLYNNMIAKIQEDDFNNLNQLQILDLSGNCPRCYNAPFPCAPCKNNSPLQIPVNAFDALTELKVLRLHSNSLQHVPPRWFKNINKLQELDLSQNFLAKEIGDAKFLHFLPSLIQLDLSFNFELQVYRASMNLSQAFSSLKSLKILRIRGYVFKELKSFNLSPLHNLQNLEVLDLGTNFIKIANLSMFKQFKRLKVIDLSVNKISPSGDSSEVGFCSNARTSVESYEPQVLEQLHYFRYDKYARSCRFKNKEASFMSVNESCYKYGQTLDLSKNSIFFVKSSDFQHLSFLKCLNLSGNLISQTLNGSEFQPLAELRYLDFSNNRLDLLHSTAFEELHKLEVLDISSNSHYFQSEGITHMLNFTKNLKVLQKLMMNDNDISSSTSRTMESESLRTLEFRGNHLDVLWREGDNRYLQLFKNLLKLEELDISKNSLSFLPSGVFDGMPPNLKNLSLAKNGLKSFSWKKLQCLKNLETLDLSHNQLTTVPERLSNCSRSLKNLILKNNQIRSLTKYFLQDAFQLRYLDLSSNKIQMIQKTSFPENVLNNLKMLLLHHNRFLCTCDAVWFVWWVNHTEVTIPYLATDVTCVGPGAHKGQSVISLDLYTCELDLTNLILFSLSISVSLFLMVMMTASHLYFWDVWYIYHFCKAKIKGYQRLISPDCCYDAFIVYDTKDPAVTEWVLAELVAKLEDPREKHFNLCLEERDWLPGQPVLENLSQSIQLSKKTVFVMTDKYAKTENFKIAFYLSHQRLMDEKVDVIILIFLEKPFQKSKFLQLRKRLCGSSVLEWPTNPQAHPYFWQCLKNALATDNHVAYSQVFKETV
Assay: Antagonist screen, hTLR7-NFκB-293 cells, NF-κB-luciferase reporter, with EC50 of R848
Type: cell-based
Conditions: compound at 0.5, 5, 50 μg/ml; EC50 concentration of R848; 16 h; NF-κB-luciferase
Protocol: The method is described in greater detail as follows. The cells for each individual cell clone (hTLR3-NFκB-293, hTLR7-NFκB-293, hTLR8-NFκB-293 and hTLR9-NFκB-293) were counted and seeded one day before the stimulation at 1.5×10^4 cells per well in 96-well cell culture plates. To become adherent the cells were incubated after seeding overnight at 37° C. in 5% CO2 humidified air.
The screen for each compound was performed at the same time for all of the receptors TLR3, TLR7, TLR8 and TLR9. Up to fifteen test compounds, each assayed in duplicate at each of three different final concentrations (0.5 μg/ml, 5 μg/ml, and 50 μg/ml), were used for 16 h cell stimulation on a single multiwell culture plate. A 4× final concentration master plate was created to prepare the different test compounds before they were added to the cells.
Controls were added as duplicates individually for each cell clone on the cell culture plate. Positive controls were used as follows (final concentrations): 50 μg/ml poly(I:C) for hTLR3-NFκB-293; 8 μM resiquimod (R848) for hTLR7-NFκB-293; 30 μM R848 for hTLR8-NFκB-293; and 2.5 μM CpG-ODN 2006 for hTLR9-NFκB-293. Media alone was used as negative control. After addition of controls and small molecules, the cell clones were additionally stimulated with the EC50 concentration of the appropriate receptor-specific ligand.
The mean value of wells H2 and H5 (each with cells and EC50 concentration of the appropriate receptor-specific ligand) divided by the mean of wells H3 and H6 (each with cells alone) yielded the baseline response (i.e., fold induction of luciferase activity) to EC50 concentration of the appropriate receptor-specific ligand.
After 16 h stimulation the supernatant was removed and the cells treated with lysis buffer and stored at −80° C. before measuring.
For each screen result a graphical documentation was performed.
The baseline result (measured with addition of the EC50 concentration of the receptor-specific ligand) for each cell culture plate was measured as described above. Antagonistic effects were measured by down regulation compared to the baseline. Antagonists were scored as follows: • 13: compounds for which there was clear down regulation at 0.5 μg/ml, 5 μg/ml, and 50 μg/ml; • 12: compounds for which there was clear down regulation at 5 μg/ml and 50 μg/ml; • 11: compounds for which there was clear down regulation only at 50 μg/ml; • —: compounds for which there was no clear down regulation even at 50 μg/ml. Agonists
Results were expressed as fold induction over baseline luciferase activity measured in the absence of R848. […] Additional screening was performed in like manner using additional small molecules selected from another library or specifically prepared for this purpose. Scoring is reported as above but as applied to TLR7.

Molecule | hTLR7 (inhibitory effect, antagonist score)
Cc1nccc2c1[nH]c1ccccc12 [compound 620, Harmane hydrochloride] | — (compounds for which there was no clear down regulation even at 50 μg/ml)
COc1ccc2c(c1)N(CC(C)CN(C)C)c1ccccc1S2.O=C(O)/C=C\C(=O)O (stereo not drawn) [compound 797, Methotrimeprazinemaleat salt] | — (compounds for which there was no clear down regulation even at 50 μg/ml)
C[C@]12N[C@H](Cc3ccccc31)c1ccccc12.O=C(O)/C=C\C(=O)O [compound 109, Dizocilpine maleate] | — (compounds for which there was no clear down regulation even at 50 μg/ml)
CN(C)CC/C=C1/c2ccccc2Sc2ccc(Cl)cc21.Cl [compound 348, Chlorprothixenehydrochloride] | 11 (compounds for which there was clear down regulation only at 50 μg/ml)
Nc1cccc2c1C(=O)c1cccc(N)c1C2=O [compound 413, Anthraquinone,1,5-diamino] | — (compounds for which there was no clear down regulation even at 50 μg/ml)
CC(=O)Oc1cc(C)c(C2(c3cc(C(C)C)c(OC(C)=O)cc3C)OC(=O)c3ccccc32)cc1C(C)C [compound 1161] | 12 (compounds for which there was clear down regulation at 5 μg/ml and 50 μg/ml)
CN(C)CCCN1c2ccccc2Sc2ccc(Cl)cc21.Cl [compound 64, Chlorpromazinehydrochloride] | 11 (compounds for which there was clear down regulation only at 50 μg/ml)
CN1CCN(CCCN2c3ccccc3Sc3ccc(S(=O)(=O)N(C)C)cc32)CC1.CS(=O)(=O)O.CS(=O)(=O)O [compound 149, Thioproperasinedimesylate] | — (compounds for which there was no clear down regulation even at 50 μg/ml)
COC(=O)[C@H]1[C@H]2C[C@@H]3c4[nH]c5cc(OC)ccc5c4CCN3C[C@H]2C[C@@H](OC(=O)/C=C/c2cc(OC)c(OC)c(OC)c2)[C@@H]1OC [compound 568, Rescinnamin] | — (compounds for which there was no clear down regulation even at 50 μg/ml)
O=C1c2c(O)cccc2Cc2cccc(O)c21 [compound 43, Anthralin] | — (compounds for which there was no clear down regulation even at 50 μg/ml)
Cc1nccc2c1[nH]c1cc(O)ccc12.Cl [compound 612, Harmol hydrochloride monohydrate] | 11 (compounds for which there was clear down regulation only at 50 μg/ml)
CN1CCC(=C2c3ccccc3Sc3ccccc32)CC1.O=C(O)/C=C\C(=O)O [compound 294, Pimethixene maleate] | 11 (compounds for which there was clear down regulation only at 50 μg/ml)
O=c1[nH]c2ccccc2n1C1CCN(CCCC(c2ccc(F)cc2)c2ccc(F)cc2)CC1 [compound 308, Pimozide] | 11 (compounds for which there was clear down regulation only at 50 μg/ml)
CCOC(=O)Oc1c(OC)cc(C(=O)O[C@@H]2C[C@@H]3CN4CCc5c([nH]c6cc(OC)ccc56)[C@H]4C[C@@H]3[C@H](C(=O)OC)[C@H]2OC)cc1OC [compound 564, Syrosingopine] | 11 (compounds for which there was clear down regulation only at 50 μg/ml)
OC(c1ccccc1)(c1ccccc1)C1CCNCC1 [compound 93, Azacyclonol] | — (compounds for which there was no clear down regulation even at 50 μg/ml)
CN(C)CCC=C1c2ccccc2CCc2ccccc21.Cl [compound 74, Amitryptilinehydrochloride] | 11 (compounds for which there was clear down regulation only at 50 μg/ml)
COC(=O)c1cccc(C(O)(c2ccccc2)c2ccccc2)c1S(=O)(=O)C(C)(C)C [compound 1187] | 12 (compounds for which there was clear down regulation at 5 μg/ml and 50 μg/ml)
COC(=O)c1ccc(C2CC(=O)Nc3c2ccc2ccccc32)cc1 (stereo not drawn) [compound 965] | 12 (compounds for which there was clear down regulation at 5 μg/ml and 50 μg/ml)
O=C(c1cccc2c1-c1ccccc1/C2=N\O)N1CCCCC1 [compound 1050] | 12 (compounds for which there was clear down regulation at 5 μg/ml and 50 μg/ml)
Cc1cccc(C2(c3cccc(C)c3)OC(=O)c3ccccc32)c1 [compound 1308] | 12 (compounds for which there was clear down regulation at 5 μg/ml and 50 μg/ml)
C[N+]12CCC(CC1)C(OC(=O)C(O)(c1ccccc1)c1ccccc1)C2.[Br-] (stereo not drawn) [compound 822, Clidinium bromide] | — (compounds for which there was no clear down regulation even at 50 μg/ml)
CC[C@]12CCCN3CCc4c(n(c5ccccc45)[C@](O)(C(=O)OC)C1)[C@@H]32 [compound 636, Epivincamine] | — (compounds for which there was no clear down regulation even at 50 μg/ml)
CCOC(=O)c1cc([N+](=O)[O-])cc2c1-c1ccc([N+](=O)[O-])cc1C2=C(C#N)C#N [compound 1039] | 11 (compounds for which there was clear down regulation only at 50 μg/ml)
COC(=O)[C@H]1[C@H]2C[C@@H]3c4[nH]c5cc(OC)ccc5c4CCN3C[C@H]2C[C@@H](OC(=O)c2cc(OC)c(OC)c(OC)c2)[C@@H]1OC [compound 875, Reserpine] | — (compounds for which there was no clear down regulation even at 50 μg/ml)
CN(C)CCCN1c2ccccc2Sc2ccc(C(F)(F)F)cc21.Cl [compound 53, Triflupromazinehydrochloride] | 11 (compounds for which there was clear down regulation only at 50 μg/ml)
O=C(O)c1ccccc1NC1CC=CC2=C1C(=O)c1ccccc1C2=O (stereo not drawn) [compound 917] | 11 (compounds for which there was clear down regulation only at 50 μg/ml)
Cc1cc(OC(=O)C2C3CCCCC32)c(C(C)C)cc1C1(c2cc(C(C)C)c(OC(=O)C3C4CCCCC43)cc2C)OC(=O)c2ccccc21 (stereo not drawn) [compound 974] | 11 (compounds for which there was clear down regulation only at 50 μg/ml)
CN1Cc2c(N)cccc2C(c2ccccc2)C1.O=C(O)/C=C\C(=O)O (stereo not drawn) [compound 108, Nomifensine maleate] | — (compounds for which there was no clear down regulation even at 50 μg/ml)
Maprotilinehydrochloride [compound 346] | 11 (compounds for which there was clear down regulation only at 50 μg/ml)
O=C(O)c1cccc2c1-c1ccccc1/C2=N/Nc1ccc([N+](=O)[O-])cc1[N+](=O)[O-] [compound 944] | 11 (compounds for which there was clear down regulation only at 50 μg/ml)
